Data as given in article PMC3389674, “Comparison of Soluble Guanylate Cyclase Stimulators and Activators in Models of Cardiovascular Disease Associated with Oxidative Stress” (Frontiers in Pharmacology, 2012).

Assays:
Sprague Dawley rats = test: radiotelemetry heart rate and blood pressure after single oral dose; type: in vivo, rat
Experimental: To identify equi-efficacious doses of GSK2181236A and BAY 60-4552, heart rate and blood pressure were monitored in male Sprague Dawley (SD) rats (∼500g, n = 4–6 per group) via surgically implanted radiotelemetry transmitters (PhysioTel PA-C40, Data Sciences International, St. Paul, MN, USA). Following oral gavage dosing (0.03–3.0 mg/kg), hemodynamic data were recorded every 5 min for 10 s and then averaged every hour.

SHR-SP = test: chronic treatment of SHR-SP on high salt/fat diet: survival, blood pressure, renal and cardiac function; type: in vivo, rat; conditions: for CO (cardiac output) / EDV (end diastolic volume) / EF (ejection fraction) / ESV (end systolic volume) / SV (stroke volume) / LVM/BW (left ventricular mass to body weight ratio): echocardiography after 7 weeks of HSFD; for LVM/BW (left ventricular mass to body weight ratio): HSFD control 3.08 ± 0.06; for survival rate: HSFD control 14%; for MAP: HSFD control 192 ± 10; for effect on MAP compared to the HSFD controls: lower doses: 0.1 mg/kg/day GSK2181236A, 0.3 mg/kg/day BAY 60-4552; for urine output: HSFD control 111 ± 21
Description: The SHR-SP is an established model of genetic hypertension. […] As such, a cohort of HSFD SHR-SP was established as a model of cardiovascular disease associated with chronic oxidative stress in this study.
A subgroup of animals (n = 45) was anesthetized with isoflurane and surgically implanted with radiotelemetry transmitters (PhysioTel PA-C40, Data Sciences International, St. Paul, MN, USA). The transmitter catheter was threaded through the femoral artery into the abdominal aorta. At 11–12 weeks of age, baseline blood pressure and heart rate were measured for 5 days (10 s recordings every 5 min) in normal caging, then rats were acclimated to metabolic caging for a minimum of 48 h before a basal 24 h urine sample and blood were collected. […] The ND group was maintained on normal chow and water throughout the study. […] Rats displaying signs of morbidity which included piloerection, lack of grooming, persistent body weight loss, lethargy, or seizure/convulsions, were promptly euthanized.
Treatments were administered in respective diets starting 1 week after the initiation of HSFD. Urine collections were repeated on weeks 2, 4, 6, and 8 and blood was sampled in the morning after each 24 h collection period for assessment of renal function. Plasma creatinine and urine sodium, microalbumin (MALB), and creatinine were ascertained using an AU640 Chemistry Analyzer (Olympus America, Inc., Center Valley, PA, USA). Plasma compound concentrations were determined as described above.
During week 7, cardiac function and morphometry were evaluated via transthoracic echocardiography. Rats were anesthetized with isoflurane (2–4% induction and 1–3% maintenance). Two-dimensional gray scale images of the left ventricle were obtained in the short axis plane at mid-ventricle level and in the parasternal long axis plane using a GE Vivid 7 system (GE Medical Systems, Milwaukee, WI, USA) and stored as digital cineloops. Pulse wave Doppler recordings from the LV outflow were obtained to determine heart rate. All images were analyzed by a single observer using a GE EchoPac (GE Medical Systems, Milwaukee, WI, USA). LV volumes were calculated as V=5/6(LVA×LVL) where LVA is area of LV chamber from the short axis view and LVL is the LV length from the long axis view at end diastole and end systole. […] Analysis was performed on three to five cardiac cycles.

SHR-SP isolated aorta = test: vasoactivity of SHR-SP isolated aorta (ND, HSFD and after chronic treatment); parameters: species or system rat
Experimental: In separate studies, endothelial function was assessed following chronic (7 week) BAY 60-4552 or GSK2181236A treatment in SHR-SP on HSFD. SHR-SP fed either normal or HSFD served as controls. Rats were anesthetized and thoracic aorta were isolated and treated with KCl and phenylephrine as described above. Cumulative concentration-response curves to phenylephrine were obtained by adding 0.5 log unit increments (1 nM to 3 μM). Following several washes with KHB, each vessel was contracted to equilibrium with 0.3 μM phenylephrine and tone was reversed by adding cumulative amounts of carbachol at 0.5 log unit intervals (10 nM to 30 μM). Following several KHB washes, the tissues were again contracted to equilibrium with 0.3 μM phenylephrine and tone was reversed by adding cumulative amounts of SNP at 0.5 log unit intervals (0.1 nM to 3 μM). In separate tissues from both the normal and HSFD SHR-SP control groups, the direct vasodilatory effects of BAY 60-4552 and GSK2181236A were investigated. Contractile tone induced by 0.3 μM phenylephrine was reversed by adding cumulative concentrations of BAY 60-4552 or GSK2181236A to the tissue baths at log increments (0.1 nM to 10 μM).

[1] = HSFD + 0.1 mg/kg chronic treatment
[2] = HSFD + 1 mg/kg chronic treatment
[3] = HSFD + 0.3 mg/kg chronic treatment
[4] = HSFD + 3 mg/kg chronic treatment

Compound: Cc1cc(-c2ccc(OC(F)(F)F)cc2)ccc1COc1ccccc1-c1cccc(-n2ncc(C(=O)O)c2C(F)(F)F)n1 [GSK2181236A, 1-(6-{2-[({3-methyl-4′-[(trifluoromethyl)oxy]-4-biphenylyl}methyl)oxy]phenyl}-2-pyridinyl)-5-(trifluoromethyl)-1H-pyrazole-4-carboxylic acid]
- lowering of mean arterial pressure (MAP) (Sprague Dawley rats; high dose): 5–10 mmHg
- potency on heart rate and blood pressure, more potent than BAY 60-4552 (Sprague Dawley rats; rat, in vivo): ~3 fold
- doses that increased heart rate and reduced blood pressure (Sprague Dawley rats; single p.o. dose): ≥ 0.3 mg/kg
- highest no-effect dose on heart rate and blood pressure (Sprague Dawley rats; single p.o. dose): 0.1 mg/kg
- reduction of MAP compared to HSFD controls (SHR-SP; 1.0 mg/kg/day for 7 week, not significant): 9 mmHg
- MALB excretion vs HSFD controls (SHR-SP; 0.1 and 1.0 mg/kg/day): did not alter
- sodium excretion vs HSFD controls (SHR-SP; 0.1 and 1.0 mg/kg/day): did not alter
- urine output vs HSFD controls (SHR-SP; 0.1 and 1.0 mg/kg/day): did not alter
- CO (cardiac output) (SHR-SP; HSFD + 0.1 mg/kg/day): 76 ± 7 mL/min
- EDV (end diastolic volume) (SHR-SP; HSFD + 0.1 mg/kg/day): 331 ± 29 µL
- EF (ejection fraction) (SHR-SP; HSFD + 0.1 mg/kg/day): 67 ± 2%
- ESV (end systolic volume) (SHR-SP; HSFD + 0.1 mg/kg/day): 110 ± 11 µL
- SV (stroke volume) (SHR-SP; HSFD + 0.1 mg/kg/day): 222 ± 19 µL
- LVM/BW (left ventricular mass to body weight ratio) (SHR-SP; HSFD + 0.1 mg/kg/day): 2.69 ± 0.08 mg/g
- CO (cardiac output) (SHR-SP; HSFD + 1.0 mg/kg/day): 80 ± 5 mL/min
- EDV (end diastolic volume) (SHR-SP; HSFD + 1.0 mg/kg/day): 332 ± 22 µL
- EF (ejection fraction) (SHR-SP; HSFD + 1.0 mg/kg/day): 71 ± 1%
- ESV (end systolic volume) (SHR-SP; HSFD + 1.0 mg/kg/day): 98 ± 10 µL
- SV (stroke volume) (SHR-SP; HSFD + 1.0 mg/kg/day): 234 ± 14 µL
- LVM/BW (left ventricular mass to body weight ratio) (SHR-SP; HSFD + 1.0 mg/kg/day): 2.82 ± 0.07 mg/g
- survival (SHR-SP; HSFD, 0.1 mg/kg/day for 7 week): did not improve survival
- survival rate (SHR-SP; HSFD, 1.0 mg/kg/day for 7 week): 69%
- MAP (SHR-SP; HSFD, 1.0 mg/kg/day for 7 week): 183 ± 7 mmHg
- effect on MAP compared to the HSFD controls (SHR-SP): did not have any effect on MAP
- Carbachol Emax in aorta of chronically treated rats (SHR-SP isolated aorta; [1]): 48 ± 14 % reversal of PE tone
- Phenylephrine Emax in aorta of chronically treated rats (SHR-SP isolated aorta; [1]): 93 ± 8 % KCl
- Sodium nitroprusside Emax in aorta of chronically treated rats (SHR-SP isolated aorta; [1]): 111 ± 3 % reversal of PE tone
- Carbachol Emax in aorta of chronically treated rats (SHR-SP isolated aorta; [2]): 59 ± 4 % reversal of PE tone
- Phenylephrine Emax in aorta of chronically treated rats (SHR-SP isolated aorta; [2]): 91 ± 8 % KCl
- Sodium nitroprusside Emax in aorta of chronically treated rats (SHR-SP isolated aorta; [2]): 100 ± 2 % reversal of PE tone

Compound: COC(=O)Nc1c(N)nc(-c2nn(Cc3ccccc3F)c3ncccc23)nc1N [BAY 60-4552]
- potency on heart rate and blood pressure, less potent than GSK2181236A (Sprague Dawley rats; rat, in vivo): approximately threefold
- highest no-effect dose on heart rate and blood pressure (Sprague Dawley rats; single p.o. dose): 0.3 mg/kg
- reduction of MAP compared to HSFD controls (SHR-SP; 3 mg/kg/day for 7 weeks, P > 0.05): 17 mmHg
- CO (cardiac output) (SHR-SP; HSFD + 0.3 mg/kg/day): 86 ± 6 mL/min
- EDV (end diastolic volume) (SHR-SP; HSFD + 0.3 mg/kg/day): 356 ± 21 µL
- EF (ejection fraction) (SHR-SP; HSFD + 0.3 mg/kg/day): 69 ± 2%
- ESV (end systolic volume) (SHR-SP; HSFD + 0.3 mg/kg/day): 111 ± 11 µL
- SV (stroke volume) (SHR-SP; HSFD + 0.3 mg/kg/day): 245 ± 14 µL
- LVM/BW (left ventricular mass to body weight ratio) (SHR-SP; HSFD + 0.3 mg/kg/day): 3.06 ± 0.07 mg/g
- CO (cardiac output) (SHR-SP; HSFD + 3.0 mg/kg/day): 89 ± 6 mL/min
- EDV (end diastolic volume) (SHR-SP; HSFD + 3.0 mg/kg/day): 379 ± 21 µL
- EF (ejection fraction) (SHR-SP; HSFD + 3.0 mg/kg/day): 67 ± 1%
- ESV (end systolic volume) (SHR-SP; HSFD + 3.0 mg/kg/day): 120 ± 9 µL
- SV (stroke volume) (SHR-SP; HSFD + 3.0 mg/kg/day): 259 ± 13 µL
- LVM/BW (left ventricular mass to body weight ratio) (SHR-SP; HSFD + 3.0 mg/kg/day): 2.85 ± 0.10 mg/g
- survival rate (SHR-SP; HSFD, 0.3 mg/kg/day for 7 week): 46%
- urine output (SHR-SP; HSFD, 0.3 mg/kg/day for seven weeks): 79 ± 11 mL/day
- survival rate (SHR-SP; HSFD, 3 mg/kg/day for 7 week): 69%
- MAP (SHR-SP; HSFD, 3 mg/kg/day for 7 weeks): 175 ± 1 mmHg
- urine output (SHR-SP; HSFD, 3.0 mg/kg/day for seven weeks): 56 ± 10 mL/day
- sodium excretion (SHR-SP; HSFD, 3.0 mg/kg/day, HSFD control 26.4 ± 2.2): 16 ± 2 mmol/day
- MALB excretion (SHR-SP; HSFD, 3.0 mg/kg/day, HSFD control 282.4 ± 20.2): 142 ± 42 mg/day
- effect on MAP compared to the HSFD controls (SHR-SP): did not have any effect on MAP
- Carbachol Emax in aorta of chronically treated rats (SHR-SP isolated aorta; [3]): 54 ± 6 % reversal of PE tone
- Phenylephrine Emax in aorta of chronically treated rats (SHR-SP isolated aorta; [3]): 88 ± 6 % KCl
- Sodium nitroprusside Emax in aorta of chronically treated rats (SHR-SP isolated aorta; [3]): 98 ± 5 % reversal of PE tone
- Carbachol Emax in aorta of chronically treated rats (SHR-SP isolated aorta; [4]): 67 ± 6 % reversal of PE tone
- Phenylephrine Emax in aorta of chronically treated rats (SHR-SP isolated aorta; [4]): 89 ± 7 % KCl
- Sodium nitroprusside Emax in aorta of chronically treated rats (SHR-SP isolated aorta; [4]): 112 ± 3 % reversal of PE tone
